Source: patent publication US8557812B2, “Small molecule inhibitors of anti-apoptotic BCL-2 family members and the uses thereof” (The Regents of the University of Michigan, priority 2004, dated 2013)
pIC50: −log10 of the molar value.

Key:
Bcl-2 = Bcl-2 (Homo sapiens, UniProt P10415); test: Fluorescence polarization in vitro Bcl-2 binding assay
Protocol: Bcl-2 used in this assay is a recombinant His-fused soluble protein. […] Inc., Research Triangle Park, N.C.). […] The unlabeled Bid peptide is used as the positive control. The Ki values were calculated using our developed equation for FP assay (Nikolovska-Coleska et al., Anal. Biochem., 2004, in press). The program for calculating a Ki value is available free of charge via the Internet at http://sw16.im.med.umich.edu/software/calc_ki/.

[1] = test system: LnCap, PC-3, DU145c, 2LMP and MCF-10A cell lines; test: Inhibition of cell growth in human cancer cell lines (MTT); type: cell-based; conditions: 120 h, each of LnCap, 5 days
Protocol: The cells were then incubated at 37° C. with 5% CO2 for 5 days, followed by detection of cell viability with MTT. Untreated cells were used as 100% growth.

PC-3 cells [2] = test: Apoptosis by Annexin V-FITC staining and flow cytometry; type: cell-based, human; conditions: 2.5 μM, 45 hours
PC-3 cells [3] = test: Caspase-3 activation in PC-3 cells (flow cytometry); type: cell-based, human; conditions: 5 μM, 48 hours
Protocol: (§1) The cells were analyzed by flow cytometry in the red channel and the results are shown as percent of cells having active caspase-3 (FIG. 5).

[4] = test system: PrEC (human normal prostate epithelial cells); test: Caspase-3 activation in PrEC cells (flow cytometry); type: cell-based; conditions: 48 hours
Protocol: as §1

MDA-231 cells = test: Cell survival with CDDP and TW-37 alone or in combination; type: cell-based, human; conditions: 0.2 μM or 0.3 μM TW-37, 42 hours
Description: CDDP is a DNA damaging agent and can effectively induce apoptosis in MDA-231 breasted cancer cells and is also a clinically used chemotherapeutic drug for cancer.

PC-3 tumor = test: PC-3 xenograft tumor growth, single agents (Example 8); type: in vivo, NCr-nu male nude mice
Protocol: TAXOTERE (TXT) and cisplatin (CDDP) were used as positive controls. For the PC-3 tumor model, 5×10^6 PC-3 cells were injected into the flanks of NCr-nu male nude mice on both sides. The quarter-MTD and half-MTD doses, i.e., 20 and 40 mg/kg, i.v. q.d.×5 for 3 weeks was tested.

[5] = Body weight of xenograft mice (Example 9); type: in vivo; conditions: doses as in Example 9
Protocol: To monitor toxicity, animal body weights were measured and plotted in FIG. 10.

in vivo = conditions: female, Balb/c, mouse, iv

Chain of Bcl-2 (P10415 92-205 limits assumed): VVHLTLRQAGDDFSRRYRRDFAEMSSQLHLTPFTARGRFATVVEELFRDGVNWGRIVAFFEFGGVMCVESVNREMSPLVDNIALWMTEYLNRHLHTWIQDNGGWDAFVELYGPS

**Q.** What does the source list for CC(C)c1ccccc1Cc1cc(C(=O)Nc2ccc(S(=O)(=O)c3ccccc3C(C)(C)C)cc2)c(O)c(O)c1O [TW-37, N-[(2-tert-Butyl-benzenesulfonyl)-phenyl]-2,3,4-trihydroxy-5-(2-isopropyl-benyl)-benzamide]?
**A.** pIC50 (Bcl-2): ≥ 6.00; pIC50 [1]: 5.30 to 6.00; apoptotic cells (PC-3 cells [2]): about 35%; cells having activated caspase-3 (PC-3 cells [3]): about 60%; effect on caspase-3 activation in normal prostate epithelial cells [4]: no effect; effect on CDDP induced cell death (MDA-231 cells): enhanced the CDDP induced cell death; potency on tumor growth compared with TAXOTERE (PC-3 tumor; 40 mg/kg TW-37 vs TXT 7.5 mg/kg i.v. once a week): as potent as TAXOTERE; inhibition of tumor growth in vivo (PC-3 tumor; 20 and 40 mg/kg i.v. q.d.5×3 weeks): significantly inhibiting tumor growth in vivo; body weight during treatment [5]: no obvious body weight loss; T-C (days) tumor growth delay (PC-3 xenograft; TW-37 40 mg/kg): 37 days; activity under the NCI criteria (T/C<42%) (PC-3 xenograft; TW-37 40 mg/kg): significantly active; T/C (%) tumor growth inhibition (PC-3 xenograft; TW-37 40 mg/kg i.v. q.d.5×3 weeks): 34.5%; tumor growth compared to control (PC-3 xenograft; TW-37 40 mg/kg, p<0.001, two-way ANOVA, n=10): significantly inhibited tumor growth; Complete tumor regression (PC-3 xenograft; TW-37 40 mg/kg, tumors regressed/total): 0/10; MTD at 3 weeks (in vivo): 80 mg/kg
